Test results reported in PMC13198257, “An aerosolized dual-action autotaxin inhibitor-PPARγ agonist for the treatment of pulmonary fibrosis” (Cell Reports Medicine, 2026).

System: lung gene expression
Assay: RNA sequencing of lung tissue (BLM/EL244 vs BLM)
Assay type: in vivo, mouse
Description: RNA quality was assessed using an Agilent TapeStation 4150 with the High Sensitivity […] ScreenTape (Agilent), according to the manufacturer’s protocols. For library preparation, the QuantSeq 3’mRNA-Seq Library Prep Kit (Lexogen) was used according to manufacturer’s instructions. Briefly, 500 ng of RNA from each sample was used for first-strand synthesis, followed by RNA template removal, and second-strand synthesis initiated by random primers. In-line barcodes were introduced at this step, and this was followed by magnetic bead-based purification. The resulting libraries were amplified for 15 cycles and re-purified, with quantity and quality assessed on a Qubit 4 Fluorometer with the Invitrogen Qubit dsDNA HS Assay and an Agilent Tapestation 4150 with the High Sensitivity D1000 assay kit, respectively. The quantified libraries were pooled equimolarly; 50ng of total library mix was used for Adapter Conversion PCR Amplification using the Universal Library Conversion Kit (App-A), Version: V1.0 (MGI Tech Co., Ltd.), according to the manufacturer’s instructions.
The quantity and quality of the purified adapter conversion PCR (AC-PCR) product were evaluated on a Qubit 4 Fluorometer with the Invitrogen Qubit dsDNA HS Assay and on an Agilent Tapestation 4150 with the High Sensitivity D1000 assay kit, respectively. This was followed by DNA denaturation, Single-Strand Circularisation, Enzymatic Digestion, Enzymatic Digestion Product Cleanup and Quality Control steps on 1 pmol of AC-PCR product, according to the Universal Library Conversion Kit (App-A) User Manual (Version: A3).
Finally, 60 fmol of ssCirDNA were used for DNB preparation and sequencing on a DNBSEQ-G400 platform at the BSRC Alexander Fleming Genomics Facility, using a G400 App-A FCS SE100 High-throughput Sequencing Set (MGI Tech Co., Ltd.), according to the manufacturer’s instructions.
Alignment of the FASTQ files was performed against the mouse genome build mm10 using a custom Bash script.[143] Read counting on the 3′ UTRs and differential expression analysis were conducted using the metaseqR2 bioconductor package.[144] Genes corresponding to the following biotypes were excluded: polymorphic_pseudogene, processed_transcript, pseudogene, IG_V_pseudogene, misc_RNA, IG_C_gene, IG_J_gene, IG_D_gene, IG_LV_gene, TR_V_gene, TR_V_pseudogene, TEC, and processed_pseudogene. Gene counts were normalized with DESEQ[145] through metaseqR2. Genes with more than 10 counts in at least 50% of the samples were kept for further processing. For differential expression analysis, the PANDORA algorithm[146] was used to estimate a meta p-value integrating the results from the DESEQ, DESEQ2,[147] edgeR,[148] limma,[149] NBPSeq,[150] and NOISeq[151] algorithms. All additional parameters were set to default values.
Pathway enrichment analysis was performed for the Gene Ontology Biological process (BP) and Molecular Function (MF) terms through GeneCodis 4.[152] The volcano plots, scatterplots, Venn diagrams, and dot plots were generated using the ggplot2 Bioconductor package.

`O=C1NC(=O)C(Cc2ccc(OCCC3CCN(C(=O)OCc4cc(Cl)cc(Cl)c4)CC3)cc2)S1` (stereo not drawn) [EL244, 3,5-dichlorobenzyl 4-(2-(4-((2,4-dioxothiazolidin-5-yl)methyl)phenoxy)ethyl)piperidine-1-carboxylate] was tested, and the “log2 nFC BLM/EL244 vs BLM” value (DEG Ccl9) was -1.37, the “log2 nFC BLM/EL244 vs BLM” value (DEG Ccnb1) was -2.41 and the “Cd300lg log2 nFC BLM/EL244 vs BLM” value (DEG Cd300lg, nFC: normalised fold change) was 1.18. For the same molecule, the “log2 nFC BLM/EL244 vs BLM” value (DEG Cdc20) was -1.58, the “log2 nFC BLM/EL244 vs BLM” value (DEG Cdca2) was -1.33 and the “log2 nFC BLM/EL244 vs BLM” value (DEG Cenpa) was -1.31. The “log2 nFC BLM/EL244 vs BLM” value (DEG Cenpk) was -1.51, the “log2 nFC BLM/EL244 vs BLM” value (DEG Cenpw) was -1.33 and the “Cep85l log2 nFC BLM/EL244 vs BLM” value (DEG Cep85l, nFC: normalised fold change) was 1.02. The “log2 nFC BLM/EL244 vs BLM” value (DEG Cercam) was -1.37, the “Cfap100 log2 nFC BLM/EL244 vs BLM” value (DEG Cfap100, nFC: normalised fold change) was 0.89 and the “Cfap206 log2 nFC BLM/EL244 vs BLM” value (DEG Cfap206, nFC: normalised fold change) was 0.77. The “Cftr log2 nFC BLM/EL244 vs BLM” value (DEG Cftr, nFC: normalised fold change) was 0.96, the “Chia1 log2 nFC BLM/EL244 vs BLM” value (DEG Chia1, nFC: normalised fold change) was 1.16 and the “Chrdl1 log2 nFC BLM/EL244 vs BLM” value (DEG Chrdl1, nFC: normalised fold change) was 1.39. For the same molecule, the “log2 nFC BLM/EL244 vs BLM” value (DEG Chsy3) was -1.56, the “Cidec log2 nFC BLM/EL244 vs BLM” value (DEG Cidec, nFC: normalised fold change) was 1.57 and the “log2 nFC BLM/EL244 vs BLM” value (DEG Cilp) was -1.39. The “log2 nFC BLM/EL244 vs BLM” value (DEG Ckap2) was -2.44, the “Ckm log2 nFC BLM/EL244 vs BLM” value (DEG Ckm, nFC: normalised fold change) was 2.32 and the “Ckmt2 log2 nFC BLM/EL244 vs BLM” value (DEG Ckmt2, nFC: normalised fold change) was 2.73. The “log2 nFC BLM/EL244 vs BLM” value (DEG Cks1b) was -1.54, the “Cldn5 log2 nFC BLM/EL244 vs BLM” value (DEG Cldn5, nFC: normalised fold change) was 0.97 and the “log2 nFC BLM/EL244 vs BLM” value (DEG Clec4a2) was -1.26. The “log2 nFC BLM/EL244 vs BLM” value (DEG Clec4n) was -1.39, the “log2 nFC BLM/EL244 vs BLM” value (DEG Col1a2) was -1.41 and the “log2 nFC BLM/EL244 vs BLM” value (DEG Col3a1) was -1.54. For the same molecule, the “log2 nFC BLM/EL244 vs BLM” value (DEG Col5a1) was -1.52, the “log2 nFC BLM/EL244 vs BLM” value (DEG Col5a2) was -1.48 and the “log2 nFC BLM/EL244 vs BLM” value (DEG Col5a3) was -1.53. The “Colq log2 nFC BLM/EL244 vs BLM” value (DEG Colq, nFC: normalised fold change) was 1.81, the “Cox6a2 log2 nFC BLM/EL244 vs BLM” value (DEG Cox6a2, nFC: normalised fold change) was 1.42 and the “Crebl2 log2 nFC BLM/EL244 vs BLM” value (DEG Crebl2, nFC: normalised fold change) was 0.79. The “Crispld2 log2 nFC BLM/EL244 vs BLM” value (DEG Crispld2, nFC: normalised fold change) was 0.80, the “Cry2 log2 nFC BLM/EL244 vs BLM” value (DEG Cry2, nFC: normalised fold change) was 0.70 and the “Csf3r log2 nFC BLM/EL244 vs BLM” value (DEG Csf3r, nFC: normalised fold change) was 1.69. The “Csrnp1 log2 nFC BLM/EL244 vs BLM” value (DEG Csrnp1, nFC: normalised fold change) was 0.83, the “Csrp3 log2 nFC BLM/EL244 vs BLM” value (DEG Csrp3, nFC: normalised fold change) was 2.07 and the “Cst8 log2 nFC BLM/EL244 vs BLM” value (DEG Cst8, nFC: normalised fold change) was 1.41. The “Ctla2a log2 nFC BLM/EL244 vs BLM” value (DEG Ctla2a, nFC: normalised fold change) was 0.72, the “Ctla2b log2 nFC BLM/EL244 vs BLM” value (DEG Ctla2b, nFC: normalised fold change) was 0.96 and the “log2 nFC BLM/EL244 vs BLM” value (DEG Cxcl13) was -1.42. The “Cxcr2 log2 nFC BLM/EL244 vs BLM” value (DEG Cxcr2, nFC: normalised fold change) was 1.19, the “Cyp2a5 log2 nFC BLM/EL244 vs BLM” value (DEG Cyp2a5, nFC: normalised fold change) was 1.66 and the “Cyp2d22 log2 nFC BLM/EL244 vs BLM” value (DEG Cyp2d22, nFC: normalised fold change) was 0.97. The “Cyp2f2 log2 nFC BLM/EL244 vs BLM” value (DEG Cyp2f2, nFC: normalised fold change) was 0.79, the “Cyp4b1 log2 nFC BLM/EL244 vs BLM” value (DEG Cyp4b1, nFC: normalised fold change) was 1.18 and the “log2 nFC BLM/EL244 vs BLM” value (DEG Cyp7b1) was -1.41. The “Cytl1 log2 nFC BLM/EL244 vs BLM” value (DEG Cytl1, nFC: normalised fold change) was 1.67, the “D630024D03Rik log2 nFC BLM/EL244 vs BLM” value (DEG D630024D03Rik, nFC: normalised fold change) was 1.60 and the “Dgkh log2 nFC BLM/EL244 vs BLM” value (DEG Dgkh, nFC: normalised fold change) was 0.84. For the same molecule, the “Dnali1 log2 nFC BLM/EL244 vs BLM” value (DEG Dnali1, nFC: normalised fold change) was 0.73, the “log2 nFC BLM/EL244 vs BLM” value (DEG Dok2) was -1.37 and the “Dpep1 log2 nFC BLM/EL244 vs BLM” value (DEG Dpep1, nFC: normalised fold change) was 0.71. The “Dpysl5 log2 nFC BLM/EL244 vs BLM” value (DEG Dpysl5, nFC: normalised fold change) was 1.90, the “Dusp1 log2 nFC BLM/EL244 vs BLM” value (DEG Dusp1, nFC: normalised fold change) was 0.86 and the “log2 nFC BLM/EL244 vs BLM” value (DEG E2f8) was -1.57.
